Measured values taken from patent US20100261734A1, “Methods of Treating Bladder Dysfunction Using Netupitant” (Helsinn Healthcare S.A., priority 2009, published 2010).
Read-outs that look alike come from different tables or passages of the source. One block for each compound: values may come before it.

Experiments:
[1] = tested on: acetic acid (AA)-induced overactive bladder (OAB); experiment: Cystometric parameters in acetic acid (AA)-induced overactive bladder (OAB) in anesthetized guinea-pigs; assay type: in vivo; conditions: for Maximal ICI (intercontraction interval) increase, % of variation from basal values: 0.2% AA bladder infusion, anesthetized guinea-pigs; for Effect on ICI (intercontraction interval): from 10 min up to 60 min post-administration, 0.2% AA
From the text: The effect of netupitant (N) was studied on cystometric parameters in acetic acid (AA)-induced overactive bladder (OAB) in anesthetized guinea-pigs. Results were compared with those obtained with a control and L-733,060 (L), another potent and selective NK1 receptor antagonist. Adult female guinea-pigs were anesthetized with urethane, and the jugular vein and urinary bladder were catheterized for drug administration and intravesical pressure recording, respectively. The urinary bladder was continuously infused with either saline or 0.2% AA. After 30 min stabilization, N, L or their vehicle (glucose 5%) were administered in separate animals (n=10 per group). Intercontraction interval (ICI, sec), and amplitude of micturition (AM, mmHg) were analyzed at 10, 20, 40 and 60 min post administration. For each dose, maximal effects were expressed as % of variation from respective basal values. ED50% (doses inducing a 50% increase in ICI) were calculated using linear regressions.

[2] = Pharmacokinetic profile of netupitant in humans after a single oral dose; assay type: in vivo; conditions: for Cl/F / Kel / tlag / AUC(0-inf) / AUC(0-t) / Cmax / Tmax / half-life / Vd/F: healthy volunteers, mean, N = 4; for AUC(0-inf) / AUC(0-t) / Cmax / Tmax / half-life / Vd/F: human, plasma; for Vd/F: read-out: Vz/F
Method: The pharmacokinetic profile of netupitant (N) in humans was examined in a randomised, double-blind, placebo controlled study comprising 5 dose groups (10, 30, 100, 300 and 450 mg) with 6 subjects in each group, of whom four received netupitant and two received placebo.

Structure (SMILES): FC(F)(F)c1cc(CO[C@H]2CCCN[C@H]2c2ccccc2)cc(C(F)(F)F)c1 [L-733,060, reference compound]
- Maximal ICI (intercontraction interval) increase, % of variation from basal values ([1]; 3 mg/kg i.v.): +40±10%
- Maximal ICI (intercontraction interval) increase, % of variation from basal values ([1]; 10 mg/kg i.v.): +76±11%
- Maximal effect on amplitude of micturition (AM), % of variation from basal values ([1]; 10 mg/kg, 10 min after administration): −28±5%
- Effect on amplitude of micturition (AM) ([1]; 10 mg/kg, p<0.05 versus basal values): decreased significantly AM
- Effect on ICI (intercontraction interval) [1]: dose-dependently and significantly increased ICI
- ED50% (dose inducing a 50% increase in ICI) ([1]; i.v., calculated using linear regressions): 5.13 mg/kg

- Cl/F ([2]; 10 mg oral): 44.0 L/h
- Kel ([2]; 10 mg oral): 0.0435 h⁻¹
- tlag ([2]; 10 mg oral): 1.88 h
- Cl/F ([2]; 30 mg oral): 35.5 L/h
- Kel ([2]; 30 mg oral): 0.027 h⁻¹
- tlag ([2]; 30 mg oral): 1.75 h
- Cl/F ([2]; 100 mg oral): 22.1 L/h
- Kel ([2]; 100 mg oral): 0.0139 h⁻¹
- tlag ([2]; 100 mg oral): 1.88 h
- Cl/F ([2]; 300 mg oral): 12.6 L/h
- Kel ([2]; 300 mg oral): 0.0154 h⁻¹
- tlag ([2]; 300 mg oral): 0.81 h
- Cl/F ([2]; 450 mg oral): 10.6 L/h
- Kel ([2]; 450 mg oral): 0.0124 h⁻¹
- tlag ([2]; 450 mg oral): 1.26 h
- AUC(0-inf) ([2]; 10 mg oral): 233 ng·h/mL
- AUC(0-t) ([2]; 10 mg oral): 140 ng·h/mL
- Cmax ([2]; 10 mg oral): 8.76 ng/mL
- Tmax ([2]; 10 mg oral): 5.75 h
- half-life ([2]; 10 mg oral): 960 min
- Vd/F ([2]; 10 mg oral): 1010 L
- AUC(0-inf) ([2]; 30 mg oral): 995 ng·h/mL
- AUC(0-t) ([2]; 30 mg oral): 870 ng·h/mL
- Cmax ([2]; 30 mg oral): 36 ng/mL
- Tmax ([2]; 30 mg oral): 5.76 h
- half-life ([2]; 30 mg oral): 1750 min
- Vd/F ([2]; 30 mg oral): 1320 L
- AUC(0-inf) ([2]; 100 mg oral): 4800 ng·h/mL
- AUC(0-t) ([2]; 100 mg oral): 4360 ng·h/mL
- Cmax ([2]; 100 mg oral): 168 ng/mL
- Tmax ([2]; 100 mg oral): 5 h
- half-life ([2]; 100 mg oral): 3250 min
- Vd/F ([2]; 100 mg oral): 1710 L
- AUC(0-inf) ([2]; 300 mg oral): 25200 ng·h/mL
- AUC(0-t) ([2]; 300 mg oral): 23100 ng·h/mL
- Cmax ([2]; 300 mg oral): 747 ng/mL
- Tmax ([2]; 300 mg oral): 5 h
- half-life ([2]; 300 mg oral): 2890 min
- Vd/F ([2]; 300 mg oral): 850 L
- AUC(0-inf) ([2]; 450 mg oral): 43700 ng·h/mL
- AUC(0-t) ([2]; 450 mg oral): 36600 ng·h/mL
- Cmax ([2]; 450 mg oral): 1130 ng/mL
- Tmax ([2]; 450 mg oral): 5.76 h
- half-life ([2]; 450 mg oral): 3580 min
- Vd/F ([2]; 450 mg oral): 881 L
- Plasma exposure (Cmax and AUC) versus dose ([2]; oral 10-450 mg, humans): increased super-proportionally with dose
- Time at which maximum plasma levels are reached post-dose ([2]; oral administration, humans): approximately 5 hours
Structure (SMILES): Cc1ccccc1-c1cc(N2CCN(C)CC2)ncc1N(C)C(=O)C(C)(C)c1cc(C(F)(F)F)cc(C(F)(F)F)c1 [netupitant, 2-[3,5-bis(trifluoromethyl)phenyl]-N,2-dimethyl-N-[4-(2-methylphenyl)-6-(4-methylpiperazin-1-yl)pyridin-3-yl]propanamide]
- Maximal ICI (intercontraction interval) increase, % of variation from basal values ([1]; 0.1 mg/kg i.v.): +51±15%
- Maximal ICI (intercontraction interval) increase, % of variation from basal values ([1]; 0.3 mg/kg i.v.): +44±8%
- Maximal ICI (intercontraction interval) increase, % of variation from basal values ([1]; 1 mg/kg i.v.): +69±8%
- Maximal effect on amplitude of micturition (AM), % of variation from basal values ([1]; 1 mg/kg, 20 min after administration): −13±6%
- Maximal ICI (intercontraction interval) increase, % of variation from basal values ([1]; 3 mg/kg i.v.): +96±20%
- ED50 ([1]; Cavia porcellus, iv, calculated using linear regressions, read-out: ED50% (dose inducing a 50% increase in ICI)): 0.62 mg/kg
- Potency relative to L in view of ED50% values ([1]; N versus L): about 16 fold
- Effect on amplitude of micturition (AM) ([1]; doses 0.1-3 mg/kg): devoid of significant effect on AM
- Effect on ICI (intercontraction interval) [1]: dose-dependently and significantly increased ICI
